Measurements taken from patent US20150276714A1, “METHOD OF IDENTIFYING OR EVALUATING BENEFICIAL ACTIVES AND COMPOSITIONS CONTAINING THE SAME” (The Procter & Gamble Company, priority 2012, published 2015).

Assays:
[1] = tested on: human dermal fibroblasts (BJ cell line); test: Extracellular acidification rate (glycolysis), XF Extracellular Flux Analyzer; format: cell-based
From the text: This method enables the non-lethal, simultaneous detection of metabolic indicators associated with the oxidative phosphorylation and glycolysis metabolic pathways in a controlled environment. The method also enables the collection of kinetic data. When assessing the metabolic response to a stressor or test agent, it is important to assess both metabolic pathways simultaneously to understand how the two metabolic pathways interact with the stressor or test agent and/or to one another. Additionally, it is important to monitor the metabolic pathways in real time (i.e., repeating periodic measurements) to observe trends and/or transient responses that may be missed when using methods that provide only static data. Thus, destructive tests are not suitable for use herein since they typically only allow for a single measurement. With regard to the fibroblasts discussed above in FIGS. 5A, 5B, 5C, 5D, 5E, 6, 7A, 7B, 7C, 7D, 7E and 8, frozen human dermal fibroblasts were obtained from the BJ cell line commercially available from ATCC, Bethesda, Md. The fibroblasts were grown to 70-80% confluence in a culture medium of Eagle's Minimum Essential Medium (“EMEM”) supplemented with 10% fetal bovine serum (“FBS”) and gentamicin/amphotericin B ×500 solution (EMEM and FBS are available from ATCC, and gentamicin/amphotericin B ×500 solution is available from Invitrogen). The fibroblasts were plated at 1×10^5 cells per well in Gelatin-coated plates 24 hours prior to testing. Each well included 100 μL of the fibroblast medium described above. A test medium was made from Dulbecco's Modified Eagle Medium (available from Seahorse Bioscience), 25 mM glucose and 1 mM pyruvate. The test medium was warmed to 37° C. and the pH adjusted to 7.4. The cells were grown and plated at 37° C. and 5% CO2 air. The fibroblast medium in the wells was replaced by the test medium 1 hour prior to taking measurements. Oxygen consumption rate and extracellular acidification rate may be detected using an XF Extracellular Flux Analyzer or equivalent. […]

[2] = tested on: human dermal fibroblasts (BJ cell line); test: Oxygen consumption rate (oxidative phosphorylation), XF Extracellular Flux Analyzer; format: cell-based
From the text: This method enables the non-lethal, simultaneous detection of metabolic indicators associated with the oxidative phosphorylation and glycolysis metabolic pathways in a controlled environment. The method also enables the collection of kinetic data. When assessing the metabolic response to a stressor or test agent, it is important to assess both metabolic pathways simultaneously to understand how the two metabolic pathways interact with the stressor or test agent and/or to one another. Additionally, it is important to monitor the metabolic pathways in real time (i.e., repeating periodic measurements) to observe trends and/or transient responses that may be missed when using methods that provide only static data. Thus, destructive tests are not suitable for use herein since they typically only allow for a single measurement. With regard to the fibroblasts discussed above in FIGS. 5A, 5B, 5C, 5D, 5E, 6, 7A, 7B, 7C, 7D, 7E and 8, frozen human dermal fibroblasts were obtained from the BJ cell line commercially available from ATCC, Bethesda, Md. […] Oxygen consumption rate and extracellular acidification rate may be detected using an XF Extracellular Flux Analyzer or equivalent. […]

## NC(=O)c1cccnc1 [niacinamide]
[1]; plate 1, 0.1 mM and […] niacinamide in combination with […] hydrogen peroxide
  effect on hydrogen peroxide-induced decrease in glycolysis metabolism: lessen the detrimental effect of the hydrogen peroxide on glycolysis metabolism
[1]; plate 2, 0.5 mM and 1.0 mM niacinamide in combination with […] hydrogen peroxide
  effect on hydrogen peroxide-induced decrease in extracellular acidification rate: prevent the acidification rate from decreasing below the basal value
[1]; plate 2, 1.0 mM niacinamide by itself
  effect on fibroblast glycolysis: substantially no effect on fibroblast glycolysis
[2]; 1.0 mM niacinamide by itself
  effect on oxphos metabolism: no significant affect on the oxphos metabolism
[2]; niacinamide 1.0 mM in combination with […] hydrogen peroxide
  effect on OCR in presence of hydrogen peroxide: lessen the initial decrease in OCR somewhat
